In US11648254B2 (Kumquat Biosciences Inc., priority 2021, dated 2023) one finds IC50 data, which are given here for 16 compounds.

Each structure is given as a SMILES string. pIC50: −log10 of the molar value. Like-named read-outs stand apart in the source and are kept apart here.

What is called pIC50 is the IC50 on a negative log10 scale, so that one unit is a factor of ten.

Assay [1] addresses SOS1 (Homo sapiens (Human), UniProt Q07889). In words: Ras-SOS interaction assay (HTRF). The class given is biochemical. A general note: Time-resolved FRET reads energy transfer from a long-lived donor to a nearby acceptor.
The subject of assay [2] is MIA PaCa-2 cells (K-Ras G12C). In words: Ras-SOS cellular growth inhibition assay (CellTiter-Glo, 3D). To be noted: Homo sapiens. It counts as cell-based. The method, boiled down:
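Growth read by CellTiter-Glo luminescence about 5 days after dosing with 3-fold dilutions (9 points), added one day post-seeding. Cells: MIA PaCa-2, 3D culture on ultra-low-attachment surface, medium DMEM/Ham's F12 plus 10% FCS and 2.5% horse serum; IC50 by four-parameter fit.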
In general terms: In ATP-based viability assays light output follows the ATP content of the culture.

Assay [3] concerns NCI-H1975 cells (EGFR T790M L858R). In words: EGFR-SOS cellular inhibition assay (CellTiter-Glo, 3D). The class given is cell-based. To be noted: Homo sapiens.
The mark [4] stands for this setting: K-RasG13D utilized, read-out: IC50 inhibition of SOS.
Where [5] appears, read: K-RasG13D, read-out: IC50 value against SOS1.
Setting [6] is: MIA PaCa-2, 120 h, MIA PaCa-2, 3D proliferation, about 5 days, read-out: Bio-Cell-Prolif-3D (MiaPaca2 IC50).
The mark [7] stands for this setting: MIA PaCa-2, MIA PaCa-2, read-out: IC50 in inhibiting MIA PaCa-2 cell growth.
The mark [8] stands for this setting: 120 h, NCI-H1975, 3D proliferation, about 5 days, read-out: Bio-Cell-Prolif-3D (H1975 IC50).
The mark [9] stands for this setting: NCI-H1975, EGFR T790M L858R, read-out: IC50 in inhibiting growth of NCI-H1975 cell line.

Sequence of SOS1 (Q07889 564-1049): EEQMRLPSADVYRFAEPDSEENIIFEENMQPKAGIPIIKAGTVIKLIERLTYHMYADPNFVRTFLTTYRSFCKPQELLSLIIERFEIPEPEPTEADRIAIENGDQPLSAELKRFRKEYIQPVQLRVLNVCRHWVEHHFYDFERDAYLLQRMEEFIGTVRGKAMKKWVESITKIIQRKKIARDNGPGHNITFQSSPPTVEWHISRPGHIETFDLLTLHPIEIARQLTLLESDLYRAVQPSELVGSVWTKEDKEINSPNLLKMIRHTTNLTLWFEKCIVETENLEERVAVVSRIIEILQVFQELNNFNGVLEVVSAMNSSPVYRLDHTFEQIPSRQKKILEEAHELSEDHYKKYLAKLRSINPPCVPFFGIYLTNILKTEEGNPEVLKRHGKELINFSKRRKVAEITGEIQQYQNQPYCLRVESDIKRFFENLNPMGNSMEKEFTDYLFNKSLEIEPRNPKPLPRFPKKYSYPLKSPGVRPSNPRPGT

Regarding `COc1nc2nc(C)nc(N[C@H](C)c3cccc(C(F)(F)C(C)(C)O)c3F)c2cc1N1CCS(=O)(=O)CC1` [Compound 169, (R)-4-(4-((1-(3-(1,1-difluoro-2-hydroxy-2-methylpropyl)-2-fluorophenyl)ethyl)amino)-7-methoxy-2-methylpyrido[2,3-d]pyrimidin-6-yl)thiomorpholine 1,1-dioxide], the pIC50 is > 7.00 in assay [1] (setting [4]); > 7.30 in assay [1] (setting [5]); ≥ 6.00 in assay [2] (setting [6]); > 6.30 in assay [2] (setting [7]); ≥ 6.00 in assay [3] (setting [8]); > 6.30 in assay [3] (setting [9]).
On to `COc1nc2nc(C)nc(N[C@H](C)c3cccc(C(C)(F)F)c3F)c2cc1N1CCS(=O)(=O)CC1` [Compound 215, (R)-4-(4-((1-(3-(1,1-difluoroethyl)-2-fluorophenyl)ethyl)amino)-7-methoxy-2-methylpyrido[2,3-d]pyrimidin-6-yl)thiomorpholine 1,1-dioxide], for which the pIC50 in assay [1] (setting [4]) is > 7.00; in assay [1] (setting [5]), > 7.30; in assay [2] (setting [6]) it was ≥ 6.00; in assay [2] (setting [7]), > 6.30; in assay [3] (setting [8]), ≥ 6.00; in assay [3] (setting [9]), > 6.30.
`CC(C)N1CCN(c2cc3c(N[C@H](C)c4cccc(C(F)F)c4F)ncnc3nc2OC2CN(C)C2)CC1` [Compound 414, (R)-N-(1-(3-(difluoromethyl)-2-fluorophenyl)ethyl)-6-(4-isopropylpiperazin-1-yl)-7-((1-methylazetidin-3-yl)oxy)pyrido [2,3-d]pyrimidin-4-amine]: the negative-log IC50 (pIC50) in assay [1] (setting [4]) was > 7.00; in assay [1] (setting [5]) it was > 7.30; in assay [2] (setting [6]), ≥ 6.00; in assay [3] (setting [8]), ≥ 6.00; in assay [3] (setting [9]), > 6.30.
On to `Cc1nc(N[C@H](C)c2cccc(C(F)F)c2F)c2cc(N3CCN(C(C)C)CC3)c(OCCN(C)C)nc2n1` [Compound 359, (R)-N-(1-(3-(difluoromethyl)-2-fluorophenyl)ethyl)-7-(2-(dimethylamino)ethoxy)-6-(4-isopropylpiperazin-1-yl)-2-methylpyrido[2,3-d] pyrimidin-4-amine], for which the pIC50 is > 7.00 in assay [1] (setting [4]); > 7.30 in assay [1] (setting [5]); ≥ 6.00 in assay [2] (setting [6]); > 6.30 in assay [2] (setting [7]); ≥ 6.00 in assay [3] (setting [8]); > 6.30 in assay [3] (setting [9]).
As to `Cc1nc(N[C@H](C)c2cccc(C(F)F)c2F)c2cc(C3CCN(C(C)C)CC3)c(OC3CN(C)C3)nc2n1` [Compound 410, (R)-N-(1-(3-(difluoromethyl)-2-fluorophenyl)ethyl)-6-(1-isopropylpiperidin-4-yl)-2-methyl-7-((1-methylazetidin-3-yl)oxy)pyrido[2,3-d]pyrimidin-4-amine], the pIC50 in assay [1] (setting [4]) is > 7.00; in assay [1] (setting [5]), > 7.30; in assay [2] (setting [6]) it was ≥ 6.00; in assay [2] (setting [7]), > 6.30; in assay [3] (setting [8]), ≥ 6.00; in assay [3] (setting [9]), > 6.30.
Regarding `CCN1CCN(c2cc3c(N[C@H](C)c4cccc(C(F)(F)F)c4F)ncnc3nc2OC)CC1` [Compound 196, (R)-6-(4-ethylpiperazin-1-yl)-N-(1-(2-fluoro-3-(trifluoromethyl)phenyl)ethyl)-7-methoxypyrido[2,3-d]pyrimidin-4-amine], the negative logarithm of the IC50 (pIC50) in assay [1] (setting [4]) is > 7.00; in assay [1] (setting [5]), > 7.30; in assay [2] (setting [6]) it was ≥ 6.00; in assay [2] (setting [7]), > 6.30; in assay [3] (setting [8]) it was ≥ 6.00; in assay [3] (setting [9]), > 6.30.
With `Cc1nc(N[C@H](C)c2cccc(C(F)(F)F)c2F)c2cc(C3CCS(=O)(=O)CC3)c(OC3CN(C)C3)nc2n1` [Compound 248, (R)-4-(4-((1-(2-fluoro-3-(trifluoromethyl)phenyl)ethyl)amino)-2-methyl-7-((1-methylazetidin-3-yl)oxy)pyrido[2,3-d]pyrimidin-6-yl)tetrahydro-2H-thiopyran 1,1-dioxide], the negative logarithm of the IC50 (pIC50) in assay [1] (setting [4]) is > 7.00; in assay [1] (setting [5]), > 7.30; in assay [2] (setting [6]), ≥ 6.00; in assay [2] (setting [7]), > 6.30; in assay [3] (setting [8]) it was ≥ 6.00; in assay [3] (setting [9]) it was > 6.30.
On to `COc1nc2nc(C)nc(N[C@H](C)c3cccc(CC(F)F)c3F)c2cc1N1CCN(C)CC1` [Compound 149, (R)-N-(1-(3-(2,2-difluoroethyl)-2-fluorophenyl)ethyl)-7-methoxy-2-methyl-6-(4-methylpiperazin-1-yl)pyrido[2,3-d] pyrimidin-4-amine], for which the pIC50 in assay [1] (setting [4]) is > 7.00; in assay [1] (setting [5]), > 7.30; in assay [2] (setting [6]), ≥ 6.00; in assay [2] (setting [7]) it was > 6.30; in assay [3] (setting [8]), ≥ 6.00; in assay [3] (setting [9]) it was > 6.30.
As to `COc1nc2nc(C)nc(N[C@H](C)c3cccc(C(F)F)c3F)c2cc1S(=O)(=O)N1CCNCC1` [Compound 114, (R)-N-(1-(3-(difluoromethyl)-2-fluorophenyl)ethyl)-7-methoxy-2-methyl-6-(piperazin-1-ylsulfonyl)pyrido[2,3-d]pyrimidin-4-amine], the pIC50 in assay [1] (setting [4]) is > 7.00; in assay [1] (setting [5]), > 7.30; in assay [2] (setting [6]) it was ≥ 6.00; in assay [3] (setting [8]) it was ≥ 6.00.
On to `COc1nc2nc(C)nc(N[C@H](C)c3cccc(C(F)(F)CO)c3F)c2cc1N1CCS(=O)(=O)CC1` [Compound 307, (R)-4-(4-((1-(3-(1,1-difluoro-2-hydroxyethyl)-2-fluorophenyl)ethyl)amino)-7-methoxy-2-methylpyrido[2,3-d]pyrimidin-6-yl)thiomorpholine 1,1-dioxide], for which the negative-log IC50 (pIC50) in assay [1] (setting [4]) is > 7.00; in assay [1] (setting [5]), > 7.30; in assay [2] (setting [6]), ≥ 6.00; in assay [2] (setting [7]) it was > 6.30; in assay [3] (setting [8]), ≥ 6.00.
Consider `Cc1nc(N[C@H](C)c2cccc(C(F)F)c2F)c2cc(C3(C#N)CC3)c(O[C@@H]3CCN(C)C3)nc2n1` [Compound 226, 1-(4-(((R)-1-(3-(difluoromethyl)-2-fluorophenyl)ethyl)amino)-2-methyl-7-(((R)-1-methylpyrrolidin-3-yl)oxy)pyrido[2,3-d]pyrimidin-6-yl)cyclopropane-1-carbonitrile], for which the negative-log IC50 (pIC50) in assay [1] (setting [4]) is > 7.00; in assay [2] (setting [6]), 5.00 to 6.00; in assay [3] (setting [8]), ≥ 6.00; in assay [3] (setting [9]) it was > 6.30.
Regarding `COc1nc2nc(C)nc(N[C@H](C)c3cccc(C(F)(F)CO)c3F)c2cc1C1CCS(=O)(=O)CC1` [Compound 174, (R)-4-(4-((1-(3-(1,1-difluoro-2-hydroxyethyl)-2-fluorophenyl)ethyl)amino)-7-methoxy-2-methylpyrido[2,3-d]pyrimidin-6-yl)tetrahydro-2H-thiopyran 1,1-dioxide], the pIC50 in assay [1] (setting [4]) is > 7.00; in assay [1] (setting [5]), > 7.30; in assay [2] (setting [6]), ≥ 6.00; in assay [2] (setting [7]) it was > 6.30; in assay [3] (setting [8]), ≥ 6.00; in assay [3] (setting [9]), > 6.30.
Take `Cc1nc(N[C@H](C)c2cccc(C(F)F)c2F)c2cc(C3(C#N)CC3)c(O[C@H]3CCN(C)C3)nc2n1` [Compound 233, 1-(4-(((R)-1-(3-(difluoromethyl)-2-fluorophenyl)ethyl)amino)-2-methyl-7-(((S)-1-methylpyrrolidin-3-yl)oxy)pyrido [2,3-d]pyrimidin-6-yl)cyclopropane-1-carbonitrile]: the pIC50 is > 7.00 in assay [1] (setting [4]); > 7.30 in assay [1] (setting [5]); ≥ 6.00 in assay [2] (setting [6]); > 6.30 in assay [2] (setting [7]); ≥ 6.00 in assay [3] (setting [8]); > 6.30 in assay [3] (setting [9]).
Regarding `Cc1nc(N[C@H](C)c2cccc(C(F)F)c2F)c2cc(C3CCS(=O)(=O)CC3)c(N(C)C)nc2n1` [Compound 143, (R)-4-(4-((1-(3-(difluoromethyl)-2-fluorophenyl)ethyl)amino)-7-(dimethylamino)-2-methylpyrido[2,3-d]pyrimidin-6-yl)tetrahydro-2H-thiopyran 1,1-dioxide], the pIC50 in assay [1] (setting [4]) was > 7.00; in assay [1] (setting [5]), > 7.30; in assay [2] (setting [6]), ≥ 6.00; in assay [2] (setting [7]), > 6.30; in assay [3] (setting [8]), ≥ 6.00; in assay [3] (setting [9]), > 6.30.
With `COc1nc2nc(C)nc(N[C@H](C)c3cccc(C(F)F)c3F)c2cc1C1CCN(C(=O)NC2COC2)CC1` [Compound 116, (R)-4-(4-((1-(3-(difluoromethyl)-2-fluorophenyl)ethyl)amino)-7-methoxy-2-methylpyrido[2,3-d]pyrimidin-6-yl)-N-(oxetan-3-yl)piperidine-1-carboxamide], the values for the pIC50 in assay [1] (setting [5]), in assay [2] (setting [6]) and in assay [3] (setting [8]) were > 7.30, ≥ 6.00 and ≥ 6.00, respectively.
As to `Cc1nc(N[C@H](C)c2cccc(C(F)(F)F)c2C)c2cc(C3(C#N)CC3)c(N3CCN(C(C)C)CC3)nc2n1` [Compound 178, (R)-1-(7-(4-isopropylpiperazin-1-yl)-2-methyl-4-((1-(2-methyl-3-(trifluoromethyl)phenyl)ethyl)amino)pyrido[2,3-d]pyrimidin-6-yl)cyclopropane-1-carbonitrile], the negative-log IC50 (pIC50) in assay [1] (setting [4]) was > 7.00; in assay [1] (setting [5]) it was > 7.30; in assay [2] (setting [6]) it was ≥ 6.00; in assay [2] (setting [7]), > 6.30; in assay [3] (setting [8]), 5.00 to 6.00.
